PubChem BioAssay (NCI)
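Cultured in 96-well plates, cells were exposed to test compound for 48 hours across five concentrations. TGI marks complete inhibition of growth.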

Columns and labels:
Test in all cases: inhibition of tumour cell growth, NCI panel, 48 h
MCF7 breast = test system: MCF7 breast
NCI-H226 lung = test system: NCI-H226 lung
DU-145 prostate = test system: DU-145 prostate
M19-MEL melanoma = test system: M19-MEL melanoma
HOP-18 NSCLC = test system: HOP-18 NSCLC
LXFL 529 NSCLC = test system: LXFL 529 NSCLC
KM20L2 colon = test system: KM20L2 colon
RXF-631 renal = test system: RXF-631 renal

CCOC(=O)c1csc(NC(=O)CCCC#N)n1
TGI (MCF7 breast): > 100 µM
TGI (NCI-H226 lung): > 100 µM
TGI (DU-145 prostate): > 100 µM

c1ccc([P+](Cc2csnn2)(c2ccccc2)c2ccccc2)cc1
TGI (M19-MEL melanoma): > 100 µM
TGI (HOP-18 NSCLC): > 100 µM
TGI (LXFL 529 NSCLC): > 100 µM
TGI (KM20L2 colon): > 100 µM
TGI (NCI-H226 lung): > 100 µM

O=C(NN1C(=O)CSC1c1ccc(Cl)c(Cl)c1)c1ccncc1 (stereo not drawn)
TGI (LXFL 529 NSCLC): > 100 µM
TGI (RXF-631 renal): > 100 µM
TGI (KM20L2 colon): > 100 µM

CCc1cc(=O)n(/C(C)=C/c2ccccc2)n1C
TGI (MCF7 breast): > 100 µM
TGI (NCI-H226 lung): > 100 µM
TGI (DU-145 prostate): > 100 µM

COc1ccc(/C(C)=N/NC(=S)N(C)C)c(O)c1
TGI (DU-145 prostate): > 100 µM

O=c1c2cc3c(=O)n(CCc4ccccc4CO)c(=O)c3cc2c(=O)n1CCc1ccccc1CO
TGI (M19-MEL melanoma): > 100 µM
TGI (LXFL 529 NSCLC): > 100 µM
TGI (NCI-H226 lung): > 100 µM

Cc1cc(C)nc(NS(=O)(=O)c2ccc(Nc3c4ccccc4nc4c(C(=O)NCCO)cccc34)cc2)n1
TGI (MCF7 breast): 42.8 µM
TGI (DU-145 prostate): > 100 µM

COc1ccc(CN2C(=O)C(=O)N(C)C2=O)c2ccccc12
TGI (MCF7 breast): > 10 µM
TGI (NCI-H226 lung): > 10 µM
TGI (DU-145 prostate): > 10 µM
